Laboratory results from ChEMBL document CHEMBL1201862, “PubChem BioAssay data set” (2004).
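Test compounds were applied to cells in 96-well plates for 48 hours at 5 doses. The concentration for 50% growth inhibition is given as GI50.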 Calls of active or inactive are those of the source. Cut-off read from the data, not from the text of the source: active = GI50 up to about 1.1 µM and inactive = higher. Residues, ends and D or L forms follow the SMILES beside them. *: point of attachment. Bn = c1ccc(C*)cc1

Experiments:
Assay in all cases: growth of human tumour cells (NCI), 48 h
SK-MEL-5 = tested on: SK-MEL-5
IGROV-1 = tested on: IGROV-1
SK-OV-3 = tested on: SK-OV-3
ACHN = tested on: ACHN
786-0 = tested on: 786-0
SF-539 = tested on: SF-539
MOLT-4 = tested on: MOLT-4
HCC 2998 = tested on: HCC 2998
HL-60 = tested on: HL-60
HCT-15 = tested on: HCT-15
NCI/ADR-RES = tested on: NCI/ADR-RES
MDA-MB-231 = tested on: MDA-MB-231
UACC-62 = tested on: UACC-62
RXF 393 = tested on: RXF 393
LOX IMVI = tested on: LOX IMVI
M14 = tested on: M14
OVCAR-4 = tested on: OVCAR-4
OVCAR-5 = tested on: OVCAR-5
Malme-3M = tested on: Malme-3M
MCF7 = tested on: MCF7

SMILES	GI50 (SK-MEL-5)	GI50 (IGROV-1)	GI50 (SK-OV-3)	GI50 (ACHN)	GI50 (786-0)	GI50 (SF-539)	GI50 (MOLT-4)	GI50 (HCC 2998)	GI50 (HL-60)	GI50 (HCT-15) [µM]	GI50 (NCI/ADR-RES)	GI50 (MDA-MB-231)	GI50 (UACC-62)	GI50 (RXF 393)	GI50 (LOX IMVI)	GI50 (M14)	GI50 (OVCAR-4)	GI50 (OVCAR-5)	GI50 (Malme-3M)	GI50 (MCF7)
O=c1oc2ccc3ccccc3c2cc1-c1cn2ccccc2n1	> 100 µM (inactive)	> 100 µM (inactive)	39.4 µM (inactive)	22.6 µM (inactive)	37.2 µM (inactive)	25.9 µM (inactive)	> 100 µM (inactive)	> 100 µM (inactive)	> 100 µM (inactive)	> 100	> 100 µM (inactive)	24.2 µM (inactive)	> 100 µM (inactive)	> 100 µM (inactive)	91.8 µM (inactive)	> 100 µM (inactive)				
COC(=O)C(CC(C)C)NC(=O)C(N)Cc1ccc(OCc2ccccc2)cc1 (stereo unspecified) (H-Tyr(Bn)-Leu-OMe; configuration not given here)	> 10 µM (inactive)	> 10 µM (inactive)	> 10 µM (inactive)	> 10 µM (inactive)	> 10 µM (inactive)	> 10 µM (inactive)	> 10 µM (inactive)	> 10 µM (inactive)	2.54 µM (inactive)	> 10	> 10 µM (inactive)	> 10 µM (inactive)	> 10 µM (inactive)	> 10 µM (inactive)	> 10 µM (inactive)	> 10 µM (inactive)	> 10 µM (inactive)	> 10 µM (inactive)	2.9 µM (inactive)	
O=C(NNc1cn[nH]c(=O)c1Cl)/C(=C/c1ccc2c(c1)OCO2)NC(=O)c1ccccc1	40.8 µM (inactive)	23.6 µM (inactive)	> 100 µM (inactive)	59.8 µM (inactive)	38.5 µM (inactive)	40.7 µM (inactive)	33.4 µM (inactive)	41.3 µM (inactive)		31.7	35.6 µM (inactive)	> 100 µM (inactive)	35.2 µM (inactive)		30.9 µM (inactive)	61.8 µM (inactive)	32.8 µM (inactive)	> 100 µM (inactive)		41.5 µM (inactive)
Nc1nc2[nH]cc(CCc3ccc(C(=O)N[C@@H](CCC(=O)O)C(=O)O)cc3)c2c(=O)[nH]1 [PEMETREXED]	> 100 µM (inactive)	> 100 µM (inactive)	> 100 µM (inactive)	0.0255 µM (active)	< 0.0104 µM (active)	< 0.01 µM (active)	0.0695 µM (active)	< 0.01 µM (active)	0.0652 µM (active)	> 100		10.3 µM (inactive)	0.23 µM (active)	> 100 µM (inactive)	0.0743 µM (active)	> 100 µM (inactive)	> 100 µM (inactive)	> 100 µM (inactive)	> 100 µM (inactive)	< 0.0147 µM (active)
C=C1C(=O)O[C@@H]2[C@H]1CC[C@H](C)[C@]1(O)CCC(=O)[C@@]21C [CORONOPILIN]	> 10 µM (inactive)	> 10 µM (inactive)	> 10 µM (inactive)		> 10 µM (inactive)	> 10 µM (inactive)	> 10 µM (inactive)	> 10 µM (inactive)	3.66 µM (inactive)	> 10	> 10 µM (inactive)		> 10 µM (inactive)	> 10 µM (inactive)	> 10 µM (inactive)		> 10 µM (inactive)		> 10 µM (inactive)	> 10 µM (inactive)
CC(=O)O[C@@]12CO[C@@H]1C[C@H](O)[C@@]1(C)C(=O)[C@H](O)C3=C(C)[C@@H](OC(=O)[C@H](O)[C@@H](NC(=O)OC(C)(C)C)c4ccccc4)C[C@@](O)([C@@H](OC(=O)c4ccccc4)[C@H]21)C3(C)C [DOCETAXEL]	< 0.01 µM (active)	< 0.01 µM (active)	0.0132 µM (active)	0.59 µM (active)	< 0.01 µM (active)	< 0.01 µM (active)	< 0.0631 µM (active)	< 0.01 µM (active)	< 0.0631 µM (active)	0.0493		0.0216 µM (active)	< 0.01 µM (active)	0.242 µM (active)	< 0.0585 µM (active)		21.8 µM (inactive)	< 0.01 µM (active)	> 10 µM (inactive)	0.000409 µM (active)
O=CCC1CCCCC1	> 100 µM (inactive)	> 100 µM (inactive)	> 100 µM (inactive)	> 100 µM (inactive)	> 100 µM (inactive)	> 100 µM (inactive)	> 100 µM (inactive)			> 100	> 100 µM (inactive)	> 100 µM (inactive)		> 100 µM (inactive)	> 100 µM (inactive)	> 100 µM (inactive)	> 100 µM (inactive)	> 100 µM (inactive)	> 100 µM (inactive)	
O=C(O)CN1C(=O)C(Cc2ccc(O)cc2)N=C(c2cccc(O)c2)c2ccccc21 (stereo unspecified)		> 100 µM (inactive)	> 100 µM (inactive)	> 100 µM (inactive)	> 100 µM (inactive)	> 100 µM (inactive)	> 100 µM (inactive)		> 100 µM (inactive)	> 100		> 100 µM (inactive)	> 100 µM (inactive)		> 100 µM (inactive)	> 100 µM (inactive)	> 100 µM (inactive)	> 100 µM (inactive)	> 100 µM (inactive)	> 100 µM (inactive)
CCCCCCCCCCSS(=O)(=O)c1ccc(C)cc1	5.36 µM (inactive)	15.1 µM (inactive)	22.3 µM (inactive)	16.9 µM (inactive)	6.1 µM (inactive)	1.87 µM (inactive)	2.03 µM (inactive)	17.5 µM (inactive)	2.43 µM (inactive)	13			6.82 µM (inactive)	15.8 µM (inactive)	4.45 µM (inactive)	10.4 µM (inactive)	15.6 µM (inactive)	15.9 µM (inactive)	15.6 µM (inactive)	
CC(C)(C)OC(=O)NC(Cc1ccccc1)NC(=O)NC(=O)OCc1ccccc1 (stereo unspecified)	26.7 µM (inactive)	> 100 µM (inactive)	54.6 µM (inactive)	39.1 µM (inactive)	34.4 µM (inactive)	25.7 µM (inactive)	> 100 µM (inactive)	40 µM (inactive)		> 100	55.7 µM (inactive)		25.3 µM (inactive)	22 µM (inactive)		57.7 µM (inactive)		> 100 µM (inactive)	41.8 µM (inactive)	> 100 µM (inactive)
CCOc1ccccc1Nc1nc(C)c(C(=O)CC(=O)C(=O)Nc2ccccc2)s1	49.2 µM (inactive)	> 100 µM (inactive)	> 100 µM (inactive)	37.8 µM (inactive)	99.8 µM (inactive)	> 100 µM (inactive)	23.8 µM (inactive)	52.7 µM (inactive)	20.3 µM (inactive)	41.9			37.9 µM (inactive)	99.1 µM (inactive)	40.7 µM (inactive)	> 100 µM (inactive)	11 µM (inactive)	> 100 µM (inactive)	> 100 µM (inactive)	
CCCCCCCCCC[C@@H](O)[C@@H]1CC[C@@H]([C@@H]2CC[C@@H]([C@@H](O)CCCCCCCCCC[C@H](O)CC3=CC(C)OC3=O)O2)O1 (stereo partly specified)	0.0385 µM (active)	3.48 µM (inactive)	3.92 µM (inactive)	0.0355 µM (active)	3.74 µM (inactive)	4.5 µM (inactive)	1.77 µM (inactive)	4.31 µM (inactive)	0.102 µM (active)	3.45	0.256 µM (active)		1.44 µM (inactive)	3.22 µM (inactive)	0.834 µM (active)	3.71 µM (inactive)	6.28 µM (inactive)	9.25 µM (inactive)	1.79 µM (inactive)	1.44 µM (inactive)
COC(=O)[C@H]1ON2O[C@@H](O[C@H]3CCCC[C@@H]3C(C)(C)c3ccccc3)C[C@@H]3CC[C@H]1[C@@]32C	> 100 µM (inactive)	> 100 µM (inactive)	> 100 µM (inactive)	> 100 µM (inactive)	> 100 µM (inactive)		> 100 µM (inactive)	> 100 µM (inactive)	> 100 µM (inactive)	> 100	> 100 µM (inactive)		> 100 µM (inactive)	> 100 µM (inactive)	> 100 µM (inactive)	> 100 µM (inactive)		> 100 µM (inactive)		> 100 µM (inactive)
O=C(O)Cn1nnc2c(=O)[nH][nH]c(=O)c21	> 100 µM (inactive)			> 100 µM (inactive)	> 100 µM (inactive)		> 10 µM (inactive)	> 100 µM (inactive)	> 100 µM (inactive)	> 100	> 100 µM (inactive)	> 100 µM (inactive)			> 100 µM (inactive)	> 100 µM (inactive)	> 10 µM (inactive)	> 100 µM (inactive)	> 100 µM (inactive)	> 100 µM (inactive)
COc1cc2cc[n+](C)c(Cc3ccc(Oc4cc(Cc5c6cc(OC)c(OC)cc6cc[n+]5C)ccc4OC)cc3)c2cc1OC	> 100 µM (inactive)	> 100 µM (inactive)	> 100 µM (inactive)	> 100 µM (inactive)	> 100 µM (inactive)	> 100 µM (inactive)	60.1 µM (inactive)	> 100 µM (inactive)	45.2 µM (inactive)	> 100		> 100 µM (inactive)	> 100 µM (inactive)	> 100 µM (inactive)	79.8 µM (inactive)	> 100 µM (inactive)	> 100 µM (inactive)	> 100 µM (inactive)	> 100 µM (inactive)	> 100 µM (inactive)
